Target: T1, Tyrosine-protein phosphatase non-receptor type 1 (Homo sapiens, UniProt P18031)
T1 sequence (P18031 whole entry): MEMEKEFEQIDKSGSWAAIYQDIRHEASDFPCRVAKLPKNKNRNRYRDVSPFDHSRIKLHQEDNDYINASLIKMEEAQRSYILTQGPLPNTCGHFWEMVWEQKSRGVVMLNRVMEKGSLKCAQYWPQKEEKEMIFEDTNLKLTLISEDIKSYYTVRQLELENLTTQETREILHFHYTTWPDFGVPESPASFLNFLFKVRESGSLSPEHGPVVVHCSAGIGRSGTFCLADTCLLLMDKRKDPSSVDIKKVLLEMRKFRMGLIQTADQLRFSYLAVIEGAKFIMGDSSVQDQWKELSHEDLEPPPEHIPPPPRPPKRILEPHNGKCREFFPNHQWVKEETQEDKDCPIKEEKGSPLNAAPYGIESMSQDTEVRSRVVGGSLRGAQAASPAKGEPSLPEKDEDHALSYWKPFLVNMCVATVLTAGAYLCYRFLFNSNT
Test: Concentration required for 50% inhibition of tyrosine phosphatase 1B

SMILES	IC50
O=C(O)C(Cc1ccccc1)Oc1ccc(-c2ccc(-c3coc4ccccc34)cc2)cc1 (stereo unspecified)	0.288 µM
Cc1oc(-c2ccc(C(F)(F)F)cc2)nc1-c1ccc2c(Br)c(OC(Cc3ccccc3)C(=O)O)ccc2c1 (stereo unspecified)	0.191 µM
CCCCc1oc2ccccc2c1Cc1ccc2ccc(O)cc2c1	0.776 µM
CCc1oc2ccccc2c1-c1ccc(-c2ccc(O)cc2)cc1	0.0316 µM
O=C(O)C(Cc1ccccc1)Oc1ccc(-c2ccc(-c3c(Br)oc4ccccc34)cc2)cc1 (stereo unspecified)	0.407 µM
Cc1oc(-c2ccc(C(F)(F)F)cc2)nc1-c1cccc(-c2ccc(O)cc2)c1	0.01 µM
Oc1ccc(-c2ccc(-c3coc4ccccc34)cc2)cc1	0.02 µM
Cc1oc(-c2ccc(C(F)(F)F)cc2)nc1-c1ccc(-c2ccc(O)cc2)cc1	0.0126 µM
O=C(O)[C@@H](Cc1ccccc1)Oc1ccc(-c2ccc(-c3nc4cccnc4n3Cc3ccccc3)cc2)cc1	0.214 µM
CCCCc1oc2ccccc2c1C(O)c1ccc2ccc(OCn3cnnn3)c(Br)c2c1 (stereo unspecified)	0.912 µM
CCCCc1oc2ccccc2c1C(=O)c1ccc2cc(O)ccc2c1	0.00316 µM
CCCCc1oc2ccccc2c1C(O)c1ccc2cc(O)ccc2c1 (stereo unspecified)	0.912 µM
COC(=O)[C@H](Cc1ccccc1)Oc1ccc(-c2ccc(-c3c(Cc4ccccc4)oc4ccccc34)cc2)cc1	0.589 µM
O=C(O)[C@@H](Cc1ccccc1)Oc1ccc(-c2ccc(-c3nc4ccccc4n3Cc3ccccc3)cc2)cc1	0.437 µM
O=C(O)[C@H](Cc1ccccc1)Oc1ccc(-c2ccc(-c3c(Cc4ccccc4)sc4ccccc34)cc2)cc1-c1ccc(Cl)cc1	0.0525 µM
CCCCc1oc2ccccc2c1-c1ccc(-c2ccc(OC)cc2)cc1	0.166 µM
CCCCc1oc2ccccc2c1C(=O)c1ccc(-c2ccc(O)cc2)cc1	0.00398 µM
Cc1oc(-c2ccc(C(F)(F)F)cc2)nc1-c1cccc(-c2ccc(OCC(=O)O)cc2)c1	0.0631 µM

Further lines, results first:

IC50	SMILES
0.0389 µM	Cc1cc(-c2ccc(-c3c(Cc4ccccc4)oc4ccccc34)cc2)cc(C)c1OS(=O)(=O)c1ccc(C(=O)O)c(O)c1
0.832 µM	CCCc1cc(-c2ccc(-c3c(Cc4ccccc4)oc4ccccc34)cc2)ccc1O[C@@H](Cc1ccccc1)C(=O)O
0.0398 µM	O=C(O)c1ccc(S(=O)(=O)Oc2ccc(-c3ccc(-c4c(Cc5ccccc5)oc5ccccc45)cc3)cc2[N+](=O)[O-])cc1O
0.275 µM	Oc1ccc(-c2ccc(-c3c(Cc4ccccc4)oc4ccccc34)cc2)cc1Br
0.603 µM	O=C(O)[C@H](Cc1ccccc1)Oc1ccc(-c2ccc(-c3c(Cc4ccc(F)cc4)oc4ccccc34)cc2)cc1
0.479 µM	Oc1c(Br)cc(-c2ccc(-c3c(Cc4ccccc4)oc4ccccc34)cc2)cc1Br
0.0525 µM	CCCC[C@@H](Oc1c(Br)cc(-c2ccc(-c3c(Cc4ccccc4)oc4ccccc34)cc2)cc1Br)C(=O)O
0.038 µM	O=C(O)[C@@H](Cc1ccccc1)Oc1c(Br)cc(-c2ccc(-c3c(Cc4ccccc4)oc4ccccc34)cc2)cc1Br

Source: ChEMBL document CHEMBL1137823, “Building predictive models for protein tyrosine phosphatase 1B inhibitors based on discriminating structural features by reassembling medicinal chemistry building blocks” (J Med Chem, 2004)
